Where “and” joins values, the source holds several entries; their conditions need not be identical. Equal entries are not always repeated.
Legend:
Assay in all cases: biochemical
Assay type in all cases: biochemical
[1] = target: various kinases (Homo sapiens, UniProt P29376); details: LTK (TYK1)
[2] = target: various kinases (Homo sapiens, UniProt Q8IY84); details: NIM1K
[3] = target: various kinases (Homo sapiens, UniProt P78362); details: kinase SRPK2; ZLYTE
[4] = target: various kinases (Homo sapiens, UniProt P54753); details: EPHB3
[5] = target: various kinases (Homo sapiens, UniProt P49841); details: GSK3B (GSK3 beta)
[6] = target: various kinases (Homo sapiens, UniProt Q04759); details: kinase PRKCQ (PKC theta); ZLYTE
[7] = target: various kinases (Homo sapiens, UniProt Q13557); details: CAMK2D (CaMKII delta)
[8] = target: various kinases (Homo sapiens, UniProt O00418); details: EEF2K
[9] = target: various kinases (Homo sapiens, UniProt Q9Y5S2); details: CDC42 BPB (MRCKB)
[10] = target: various kinases (Homo sapiens, UniProt P10721, V559D/V654A); details: KIT V559D V654A
[11] = target: T1, various kinases (Homo sapiens, UniProt Q13470); details: kinase TNK1; ZLYTE
T1 sequence (Q13470 1-666): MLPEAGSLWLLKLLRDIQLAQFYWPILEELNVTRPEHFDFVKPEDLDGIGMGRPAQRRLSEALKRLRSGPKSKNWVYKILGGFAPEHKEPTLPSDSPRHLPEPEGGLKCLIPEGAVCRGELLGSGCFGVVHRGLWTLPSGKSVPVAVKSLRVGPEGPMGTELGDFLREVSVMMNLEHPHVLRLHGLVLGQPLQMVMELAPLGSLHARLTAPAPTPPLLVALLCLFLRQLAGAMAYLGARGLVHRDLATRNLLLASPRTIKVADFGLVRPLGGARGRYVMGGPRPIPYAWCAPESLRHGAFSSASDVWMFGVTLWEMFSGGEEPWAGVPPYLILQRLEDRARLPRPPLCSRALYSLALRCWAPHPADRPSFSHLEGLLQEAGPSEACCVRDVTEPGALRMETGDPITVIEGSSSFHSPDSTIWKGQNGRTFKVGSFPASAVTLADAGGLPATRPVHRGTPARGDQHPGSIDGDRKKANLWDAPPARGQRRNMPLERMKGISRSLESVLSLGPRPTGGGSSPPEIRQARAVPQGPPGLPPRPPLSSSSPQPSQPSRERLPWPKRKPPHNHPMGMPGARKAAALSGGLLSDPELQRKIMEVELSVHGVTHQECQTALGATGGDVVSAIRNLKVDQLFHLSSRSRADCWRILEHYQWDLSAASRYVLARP

[12] = target: various kinases (Homo sapiens, UniProt P54762); details: EPHB1
[13] = target: T2, various kinases (Homo sapiens, UniProt Q9UHD2); details: kinase TBK1; ZLYTE
T2 sequence (Q9UHD2 1-729): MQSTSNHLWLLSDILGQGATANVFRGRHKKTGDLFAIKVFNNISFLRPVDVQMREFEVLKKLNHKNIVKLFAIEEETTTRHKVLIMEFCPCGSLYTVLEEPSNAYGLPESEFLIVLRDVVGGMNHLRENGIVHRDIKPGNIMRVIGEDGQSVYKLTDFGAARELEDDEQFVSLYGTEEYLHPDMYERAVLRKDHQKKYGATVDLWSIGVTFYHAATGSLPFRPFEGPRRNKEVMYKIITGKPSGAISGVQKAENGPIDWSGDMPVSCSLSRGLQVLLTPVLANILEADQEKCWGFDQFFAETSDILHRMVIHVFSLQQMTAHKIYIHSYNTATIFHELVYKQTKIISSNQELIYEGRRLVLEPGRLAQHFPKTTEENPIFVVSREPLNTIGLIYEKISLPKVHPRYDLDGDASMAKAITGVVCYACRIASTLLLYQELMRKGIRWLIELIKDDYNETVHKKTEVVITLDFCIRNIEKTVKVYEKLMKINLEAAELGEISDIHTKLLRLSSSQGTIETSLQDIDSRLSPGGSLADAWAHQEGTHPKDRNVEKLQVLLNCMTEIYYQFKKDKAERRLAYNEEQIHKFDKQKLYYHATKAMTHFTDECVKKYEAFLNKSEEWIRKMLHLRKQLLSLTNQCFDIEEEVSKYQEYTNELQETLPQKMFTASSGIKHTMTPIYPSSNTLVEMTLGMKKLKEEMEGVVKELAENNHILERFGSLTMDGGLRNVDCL

[14] = target: various kinases (Homo sapiens, UniProt Q13177); details: PAK2 (PAK65)
[15] = target: various kinases (Homo sapiens, UniProt P45983); details: MAPK8 (JNK1)
[16] = target: various kinases (Homo sapiens, UniProt Q96NX5); details: CAMK1G (CAMKI gamma)
[17] = target: various kinases (Homo sapiens, UniProt P22607); details: FGFR3

various kinases (Homo sapiens, UniProt P78362), sequence (P78362 whole entry): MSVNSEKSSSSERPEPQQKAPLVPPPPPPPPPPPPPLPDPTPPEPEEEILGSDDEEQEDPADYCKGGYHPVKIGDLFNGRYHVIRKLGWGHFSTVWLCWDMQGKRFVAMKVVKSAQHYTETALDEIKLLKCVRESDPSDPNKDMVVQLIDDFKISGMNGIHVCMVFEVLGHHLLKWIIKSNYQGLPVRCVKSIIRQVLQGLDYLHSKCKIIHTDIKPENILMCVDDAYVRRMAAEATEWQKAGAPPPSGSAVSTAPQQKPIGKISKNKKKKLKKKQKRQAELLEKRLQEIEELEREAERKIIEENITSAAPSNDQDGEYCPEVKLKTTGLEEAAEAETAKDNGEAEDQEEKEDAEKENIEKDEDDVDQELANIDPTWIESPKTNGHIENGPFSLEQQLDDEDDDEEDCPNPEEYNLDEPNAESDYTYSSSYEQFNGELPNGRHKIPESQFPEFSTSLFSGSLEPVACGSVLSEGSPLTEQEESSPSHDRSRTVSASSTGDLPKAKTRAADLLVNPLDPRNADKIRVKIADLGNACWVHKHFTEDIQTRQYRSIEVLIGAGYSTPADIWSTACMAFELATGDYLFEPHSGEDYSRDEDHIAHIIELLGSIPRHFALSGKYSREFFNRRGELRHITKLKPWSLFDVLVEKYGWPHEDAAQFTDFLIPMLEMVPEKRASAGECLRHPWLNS
various kinases (Homo sapiens, UniProt Q04759), sequence (Q04759 whole entry): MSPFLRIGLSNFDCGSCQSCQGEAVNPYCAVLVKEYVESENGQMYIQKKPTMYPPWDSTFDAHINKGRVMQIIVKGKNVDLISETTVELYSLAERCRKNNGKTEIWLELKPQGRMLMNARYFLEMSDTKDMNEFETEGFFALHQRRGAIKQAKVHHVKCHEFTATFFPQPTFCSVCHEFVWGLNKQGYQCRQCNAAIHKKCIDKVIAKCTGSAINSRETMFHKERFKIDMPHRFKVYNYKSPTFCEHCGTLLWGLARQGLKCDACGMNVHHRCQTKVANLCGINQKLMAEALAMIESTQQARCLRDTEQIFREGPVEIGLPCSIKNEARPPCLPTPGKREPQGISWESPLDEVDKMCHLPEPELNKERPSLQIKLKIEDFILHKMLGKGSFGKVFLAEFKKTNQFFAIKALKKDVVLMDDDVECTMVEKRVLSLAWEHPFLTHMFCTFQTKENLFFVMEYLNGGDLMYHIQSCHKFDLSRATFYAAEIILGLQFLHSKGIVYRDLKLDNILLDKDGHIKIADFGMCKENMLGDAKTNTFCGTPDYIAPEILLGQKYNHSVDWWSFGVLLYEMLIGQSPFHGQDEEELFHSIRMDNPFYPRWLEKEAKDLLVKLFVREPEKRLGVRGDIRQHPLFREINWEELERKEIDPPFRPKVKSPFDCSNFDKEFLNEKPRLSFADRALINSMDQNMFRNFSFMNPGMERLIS
various kinases (Homo sapiens, UniProt Q13557), sequence (Q13557 whole entry): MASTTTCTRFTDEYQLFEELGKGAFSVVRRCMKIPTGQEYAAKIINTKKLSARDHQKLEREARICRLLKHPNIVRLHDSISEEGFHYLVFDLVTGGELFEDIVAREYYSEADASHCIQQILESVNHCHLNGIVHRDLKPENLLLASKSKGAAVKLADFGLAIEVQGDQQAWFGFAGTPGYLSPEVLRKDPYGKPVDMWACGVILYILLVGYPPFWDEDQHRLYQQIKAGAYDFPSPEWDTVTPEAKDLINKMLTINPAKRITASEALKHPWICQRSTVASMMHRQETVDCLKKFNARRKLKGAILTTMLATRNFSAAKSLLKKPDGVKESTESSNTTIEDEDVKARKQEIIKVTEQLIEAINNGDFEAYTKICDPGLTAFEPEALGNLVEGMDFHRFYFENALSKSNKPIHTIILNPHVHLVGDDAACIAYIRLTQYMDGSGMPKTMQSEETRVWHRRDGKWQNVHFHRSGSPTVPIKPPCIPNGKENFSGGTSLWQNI
various kinases (Homo sapiens, UniProt Q13177), sequence (Q13177 whole entry): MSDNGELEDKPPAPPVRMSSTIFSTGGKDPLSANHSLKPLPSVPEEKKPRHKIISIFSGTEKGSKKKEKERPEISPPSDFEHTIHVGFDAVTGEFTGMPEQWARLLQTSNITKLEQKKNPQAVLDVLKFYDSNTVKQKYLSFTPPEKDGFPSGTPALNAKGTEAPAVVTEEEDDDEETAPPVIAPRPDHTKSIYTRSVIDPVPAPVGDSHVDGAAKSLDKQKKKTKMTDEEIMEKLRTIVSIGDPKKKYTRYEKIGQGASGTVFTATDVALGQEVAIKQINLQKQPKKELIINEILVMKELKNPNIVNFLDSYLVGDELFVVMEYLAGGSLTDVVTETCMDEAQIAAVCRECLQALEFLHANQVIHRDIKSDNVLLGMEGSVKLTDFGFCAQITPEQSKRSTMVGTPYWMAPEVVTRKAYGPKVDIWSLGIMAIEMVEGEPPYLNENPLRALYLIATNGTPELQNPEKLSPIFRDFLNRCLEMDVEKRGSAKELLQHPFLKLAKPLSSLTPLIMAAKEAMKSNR
various kinases (Homo sapiens, UniProt O00418), sequence (O00418 whole entry): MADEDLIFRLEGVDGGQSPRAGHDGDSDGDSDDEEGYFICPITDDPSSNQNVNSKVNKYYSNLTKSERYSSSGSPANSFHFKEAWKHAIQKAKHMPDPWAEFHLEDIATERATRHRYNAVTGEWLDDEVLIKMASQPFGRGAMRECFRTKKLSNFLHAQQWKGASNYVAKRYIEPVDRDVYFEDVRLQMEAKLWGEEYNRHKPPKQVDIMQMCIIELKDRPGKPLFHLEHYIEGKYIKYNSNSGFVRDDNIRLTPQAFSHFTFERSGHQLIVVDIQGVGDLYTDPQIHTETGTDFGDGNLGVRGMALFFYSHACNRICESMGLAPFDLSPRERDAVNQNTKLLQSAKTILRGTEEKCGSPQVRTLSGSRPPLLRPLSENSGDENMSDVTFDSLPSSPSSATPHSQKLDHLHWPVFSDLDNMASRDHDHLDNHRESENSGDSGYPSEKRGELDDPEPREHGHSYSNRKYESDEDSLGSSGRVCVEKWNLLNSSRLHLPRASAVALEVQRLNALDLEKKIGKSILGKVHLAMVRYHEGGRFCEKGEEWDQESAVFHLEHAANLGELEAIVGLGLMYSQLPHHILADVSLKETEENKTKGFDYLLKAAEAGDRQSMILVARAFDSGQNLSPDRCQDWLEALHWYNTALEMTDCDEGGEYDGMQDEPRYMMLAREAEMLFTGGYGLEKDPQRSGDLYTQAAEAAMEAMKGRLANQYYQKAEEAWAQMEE
various kinases (Homo sapiens, UniProt P45983), sequence (P45983 whole entry): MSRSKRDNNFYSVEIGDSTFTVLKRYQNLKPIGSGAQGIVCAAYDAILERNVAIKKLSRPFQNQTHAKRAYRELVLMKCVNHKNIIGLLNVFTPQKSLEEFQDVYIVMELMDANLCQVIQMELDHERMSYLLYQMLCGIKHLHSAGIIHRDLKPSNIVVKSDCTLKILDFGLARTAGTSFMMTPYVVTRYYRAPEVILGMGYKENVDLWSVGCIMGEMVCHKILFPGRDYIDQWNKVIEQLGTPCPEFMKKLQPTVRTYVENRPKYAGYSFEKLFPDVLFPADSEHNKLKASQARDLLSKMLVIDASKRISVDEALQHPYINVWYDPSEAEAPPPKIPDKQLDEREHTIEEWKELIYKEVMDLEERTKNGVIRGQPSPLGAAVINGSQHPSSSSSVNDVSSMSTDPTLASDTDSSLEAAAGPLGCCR
various kinases (Homo sapiens, UniProt Q8IY84), sequence (Q8IY84 whole entry): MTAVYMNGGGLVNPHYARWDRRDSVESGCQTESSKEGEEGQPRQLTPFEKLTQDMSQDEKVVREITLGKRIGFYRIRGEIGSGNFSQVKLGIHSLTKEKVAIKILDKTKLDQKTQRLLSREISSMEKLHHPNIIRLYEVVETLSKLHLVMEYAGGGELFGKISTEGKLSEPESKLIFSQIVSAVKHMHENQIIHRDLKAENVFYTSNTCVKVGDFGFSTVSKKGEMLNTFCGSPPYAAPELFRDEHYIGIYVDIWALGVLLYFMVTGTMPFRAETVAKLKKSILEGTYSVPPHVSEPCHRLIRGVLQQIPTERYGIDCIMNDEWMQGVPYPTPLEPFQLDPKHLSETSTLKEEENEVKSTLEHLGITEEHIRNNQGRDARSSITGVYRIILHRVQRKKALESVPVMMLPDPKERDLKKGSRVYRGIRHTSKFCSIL
various kinases (Homo sapiens, UniProt P10721, V559D/V654A), sequence (P10721 26-976 V559D/V654A): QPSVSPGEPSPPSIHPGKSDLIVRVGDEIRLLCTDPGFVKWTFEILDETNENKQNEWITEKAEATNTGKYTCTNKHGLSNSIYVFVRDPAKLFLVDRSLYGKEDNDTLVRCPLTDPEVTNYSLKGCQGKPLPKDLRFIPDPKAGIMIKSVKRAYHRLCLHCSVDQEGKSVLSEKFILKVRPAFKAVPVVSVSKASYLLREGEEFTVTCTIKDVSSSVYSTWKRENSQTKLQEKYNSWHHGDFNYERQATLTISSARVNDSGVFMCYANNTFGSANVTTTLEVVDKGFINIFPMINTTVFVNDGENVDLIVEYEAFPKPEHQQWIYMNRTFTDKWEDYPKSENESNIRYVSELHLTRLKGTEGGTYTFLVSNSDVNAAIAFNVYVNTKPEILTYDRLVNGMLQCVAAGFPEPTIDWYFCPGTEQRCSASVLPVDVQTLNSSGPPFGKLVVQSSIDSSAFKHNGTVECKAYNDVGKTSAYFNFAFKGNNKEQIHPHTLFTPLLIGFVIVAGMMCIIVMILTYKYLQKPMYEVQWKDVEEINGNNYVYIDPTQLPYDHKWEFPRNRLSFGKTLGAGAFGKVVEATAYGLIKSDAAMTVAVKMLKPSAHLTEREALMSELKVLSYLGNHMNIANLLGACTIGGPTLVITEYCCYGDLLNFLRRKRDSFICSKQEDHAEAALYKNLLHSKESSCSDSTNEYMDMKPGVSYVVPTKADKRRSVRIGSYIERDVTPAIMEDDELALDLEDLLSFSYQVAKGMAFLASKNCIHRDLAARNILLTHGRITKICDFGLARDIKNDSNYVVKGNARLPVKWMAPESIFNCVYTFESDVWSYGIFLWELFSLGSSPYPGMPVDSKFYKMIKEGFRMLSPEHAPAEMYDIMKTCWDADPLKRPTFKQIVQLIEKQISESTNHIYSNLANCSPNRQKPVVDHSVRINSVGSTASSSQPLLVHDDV

For `COc1ccc2c(c1)[C@]1(C[C@H]1c1ccc3c(/C=C/c4ccc(CN5C[C@@H](C)O[C@@H](C)C5)cc4)n[nH]c3c1)C(=O)N2` [CFI-400945], the “% Inhibition” value [1] was 68%, the “% Inhibition” value [2] was 2% and 3% and the “% Inhibition Average” value [3] was 7%. For the same compound, the “% Inhibition Duplicate #1” value [3] was 10%, the “% Inhibition Duplicate #2” value [3] was 4% and the “% Inhibition” value [4] was 3% and 2%. The “% Inhibition” value [5] was 7% and 6%, the “% Inhibition Average” value [6] was 7% and the “% Inhibition Duplicate #1” value [6] was 1%. The “% Inhibition Duplicate #2” value [6] was 13%, the “% Inhibition” value [7] was 28% and 37% and the “% Inhibition” value [8] was 2% and 3%. For the same compound, the “% Inhibition” value [9] was -1% and 2%, the “% Inhibition” value [10] was 5% and 6% and the “% Inhibition Average” value [11] was 30%. For the same compound, the “% Inhibition Duplicate #1” value [11] was 26%, the “% Inhibition Duplicate #2” value [11] was 34% and the “% Inhibition” value [12] was 11% and 16%. The “% Inhibition Average” value [13] was 4%, the “% Inhibition Duplicate #1” value [13] was 3% and the “% Inhibition Duplicate #2” value [13] was 4%. For the same compound, the “% Inhibition” value [14] was 17% and 8%, the “% Inhibition” value [15] was -3% and -1% and the “% Inhibition” value [16] was -3% and 2%. For the same compound, the “% Inhibition” value [17] was 11% and 14%.
